Measured values published in article PMC3764026, “Adaptive Evolution of Escherichia coli to an α-Peptide/β-Peptoid Peptidomimetic Induces Stable Resistance” (PLoS ONE, 2013).
In brackets after ≈: the same amount, converted by molar mass. Several values for one entry are separate records, joined by “and”; a condition that tells them apart may be missing. Equal entries are not always repeated. Where two headings read alike, the source gives them in different places.

Assays:
Format in all cases: cell-based, Escherichia coli
[1] = system: E. coli ATCC 25922 control lineages; details: two technical duplicates; for MIC against peptidomimetic 1 after selection: MHB
Description: (§1) Continuous selection of resistance was performed for peptidomimetic 1 (Figure 1) and for the clinically relevant natural antimicrobial peptide, polymyxin B. A bacterial suspension of a single colony of E. coli ATCC 25922 was re-inoculated (10 µl) five times in unsupplemented MHB (990 µl). It was then re-inoculated in MHB supplemented with peptidomimetic 1 (ten lineages) or polymyxin B (ten lineages), and after ten re-inoculations at constant peptidomimetic or polymyxin B concentration, the concentrations were doubled. […] Four lineages grown in MHB with MilliQ water were included as control. Re-inoculations were performed twice a day, but were reduced to once a day when growth was slower as assessed by turbidity of the cultures. The total number of passages (supplemented with peptidomimetic/AMP) was 77 times equivalent to approx. 500 generations. For each increase in concentration the lineages were preserved as freezing stocks. Ten colony isolates were randomly selected from each lineage population at 32×MIC and preserved as freezing stocks.
(§2) MIC was determined by using the micro-dilution method according to guidelines of the Clinical and Laboratory Standards Institute. Peptidomimetic 1 and erythromycin 1∶2 serial dilutions were prepared from 1024 µg/mL stock solutions to give a final range of 512-0.5 µg/mL in the wells. Ampicillin 1∶2 serial dilutions were prepared from a 256 µg/mL stock solution to give a final range of 128-0.13 µg/mL in the wells. Polymyxin B and gentamicin 1∶2 serial dilutions were prepared from a 64 µg/mL stock solution to give a final range of 32-0.03 µg/mL in the wells. Also, 1∶2 serial dilutions of the AMPs KR-12, IsCTp, melittin and PEP-1-K were prepared from 64 µg/mL stock solutions to give a final range of 32-0.03 µg/mL in the wells; however this was performed in 1% peptone instead of in MHB since activity was drastically diminished in the latter (not shown).
(§3) The population lineages were tested for their susceptibility towards peptidomimetic 1, polymyxin B, gentamicin and ampicillin. Single-culture isolates selected from these populations were additionally tested against peptidomimetic 1, polymyxin B, erythromycin and the five reference AMPs. To estimate the level of cross-resistance to closely related peptidomimetics, MIC determinations were performed for peptidomimetics 2 and 3 (Figure 1) towards selected isolates. The bacterial suspensions were grown overnight in MHB at 37°C for determination of the population MIC, or individual isolates were grown overnight on non-selective BHI agar at 37°C. […] In all experiments, bacterial cells were suspended in 0.9% saline to give a turbidity of 0.13 at OD546 (approximately 1×10^8 CFU/mL) and diluted in MHB pH 7.4 to a final concentration of 5×10^5 CFU/mL in each well. Polypropylene plates (Nunc 442587) were used to minimize peptide binding, and the incubation time was 18–20 hours at 37°C. Incubation time was additionally extended up to 44 hours for the individual isolates due to a potential effect of growth rate on the outcome, but no effect was seen of this (not shown). MIC was found in a minimum of two technical (population MIC) or biological (isolate MIC) replicates as the lowest concentration of the AMP or antibiotic where no visible growth was observed.
(§4) Frozen stocks were reconditioned in unsupplemented MHB media for five transfers (∼35 generations) at 37°C. The heritability of resistance was established through MIC determination of bacterial populations as described above.

[2] = system: E. coli ATCC 25922 lineages adapted to polymyxin B; details: polymyxin B-exposed lineages, ~35 generations unsupplemented; became similar to controls; not shown
Description: as §1, §2, §3, §4

[3] = system: E. coli ATCC 25922 lineages adapted to peptidomimetic 1; details: two technical duplicates; for MIC against peptidomimetic 1 after selection: MHB pH 7.4, 37°C, 18–20 h
Description: as §1, §2, §3, §4

**Q.** `CC(=O)N[C@@H](CCCCNC(=N)N)C(=O)N(CCC(=O)N[C@@H](CCCCNC(=N)N)C(=O)N(CCC(=O)N[C@@H](CCCCNC(=N)N)C(=O)N(CCC(=O)N[C@@H](CCCCNC(=N)N)C(=O)N(CCC(=O)N[C@@H](CCCCNC(=N)N)C(=O)N(CCC(=O)N[C@@H](CCCCNC(=N)N)C(=O)N(CCC(N)=O)[C@@H](C)c1ccccc1)[C@@H](C)c1ccccc1)[C@@H](C)c1ccccc1)[C@@H](C)c1ccccc1)[C@@H](C)c1ccccc1)[C@@H](C)c1ccccc1` [peptidomimetic 1] was tested. Which “MIC against peptidomimetic 1 after 35 generations w/o selection” value (“MIC … after 35 generations w/o selection” below) ([1]; Control 1 lineage (MilliQ water)) did it give?
**A.** Its value is 16 to 32 µg/mL.

**Q.** And the “MIC against peptidomimetic 1 after selection” value (from here on “MIC … after selection”) ([1]; Control 1 lineage (MilliQ water, no peptidomimetic))?
**A.** Its value is 32 µg/mL (≈ 15 µM).

**Q.** What about the “MIC … after 35 generations w/o selection” value ([1]; Control 2 lineage (MilliQ water)) of the same compound?
**A.** The value was 8 µg/mL (≈ 3.75 µM).

**Q.** And the “MIC … after selection” value ([1]; Control 2 lineage (MilliQ water, no peptidomimetic))?
**A.** The value was 8 µg/mL (≈ 3.75 µM).

**Q.** What about the “cross-resistance after removal of the selection pressure” value [2] of the same compound?
**A.** The value was “lost”.

**Q.** What about the “MIC … after 35 generations w/o selection” value ([3]; peptidomimetic-exposed lineage 1, five passages in unsupplemented MHB) of the same compound?
**A.** Its value is 128 to 256 µg/mL.

**Q.** What about the “MIC … after 35 generations w/o selection” value ([3]; peptidomimetic-exposed lineage 2, five passages in unsupplemented MHB) of the same compound?
**A.** Its value is 256 µg/mL (≈ 120 µM).

**Q.** And the “MIC … after selection” value ([3]; peptidomimetic-exposed lineage 2, population outgrown at 32×wt MIC)?
**A.** The value was 256 µg/mL (≈ 120 µM).

**Q.** What about the “MIC … after 35 generations w/o selection” value ([3]; peptidomimetic-exposed lineage 3, five passages in unsupplemented MHB) of the same compound?
**A.** The value was 128 µg/mL (≈ 60 µM).

**Q.** What about the “MIC … after 35 generations w/o selection” value ([3]; peptidomimetic-exposed lineage 4, five passages in unsupplemented MHB) of the same compound?
**A.** The value was 128 µg/mL (≈ 60 µM).

**Q.** And the “MIC … after selection” value ([3]; peptidomimetic-exposed lineage 4, population outgrown at 32×wt MIC)?
**A.** The value was 256 µg/mL (≈ 120 µM).

**Q.** And the “MIC … after 35 generations w/o selection” value ([3]; peptidomimetic-exposed lineage 5, five passages in unsupplemented MHB)?
**A.** Its value is 128 µg/mL (≈ 60 µM).

**Q.** What about the “MIC … after selection” value ([3]; peptidomimetic-exposed lineage 5, population outgrown at 32×wt MIC) of the same compound?
**A.** Its value is 128 µg/mL and 64 to 128 µg/mL.

**Q.** What about the “MIC … after 35 generations w/o selection” value ([3]; peptidomimetic-exposed lineage 6, five passages in unsupplemented MHB) of the same compound?
**A.** Its value is 64 to 128 µg/mL.

**Q.** What about the “MIC … after 35 generations w/o selection” value ([3]; peptidomimetic-exposed lineage 7, five passages in unsupplemented MHB) of the same compound?
**A.** Its value is 128 µg/mL (≈ 60 µM).

**Q.** And the “MIC … after selection” value ([3]; peptidomimetic-exposed lineage 7, population outgrown at 32×wt MIC)?
**A.** Its value is 128 µg/mL (≈ 60 µM).

**Q.** What about the “MIC … after 35 generations w/o selection” value ([3]; peptidomimetic-exposed lineage 8, five passages in unsupplemented MHB) of the same compound?
**A.** Its value is 32 to 64 µg/mL.

**Q.** What about the “MIC … after 35 generations w/o selection” value ([3]; peptidomimetic-exposed lineage 9, five passages in unsupplemented MHB) of the same compound?
**A.** The value was 128 µg/mL (≈ 60 µM).

**Q.** What about the “MIC … after 35 generations w/o selection” value ([3]; peptidomimetic-exposed lineage 10, five passages in unsupplemented MHB) of the same compound?
**A.** Its value is 32 µg/mL (≈ 15 µM).

**Q.** What about the “MIC … after selection” value ([3]; peptidomimetic-exposed lineage 10, population outgrown at 32×wt MIC) of the same compound?
**A.** The value was 256 µg/mL (≈ 120 µM).
